In patent publication US12409171B2, “Pharmaceutically active pyrazolo-pyridone modulators of DCN1/2-mediated cullin neddylation” (UNIVERSITY OF KENTUCKY RESEARCH FOUNDATION, priority 2019, dated 2025):

Target: DCN1 (Homo sapiens (Human), UniProt Q96GG9)
Assay: TR-FRET binding assay (biotin-DCN1 / Ac-UBE2M12-AlexaFluor488)
Conditions: mean ± SD (n); read-out: DCN1_TRFRET Mean EC50
Summary of the method: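 Biotinylated DCN1 binding to Ac-UBE2M12-AlexaFluor488 read by TR-FRET; assay cocktail pre-incubated 1 h at room temperature before compounds added from DMSO stocks by pin transfer. IC50 is the mean of three replicates ± SD; compounds tested in triplicate or more.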

Chain of DCN1 (Q96GG9 whole entry): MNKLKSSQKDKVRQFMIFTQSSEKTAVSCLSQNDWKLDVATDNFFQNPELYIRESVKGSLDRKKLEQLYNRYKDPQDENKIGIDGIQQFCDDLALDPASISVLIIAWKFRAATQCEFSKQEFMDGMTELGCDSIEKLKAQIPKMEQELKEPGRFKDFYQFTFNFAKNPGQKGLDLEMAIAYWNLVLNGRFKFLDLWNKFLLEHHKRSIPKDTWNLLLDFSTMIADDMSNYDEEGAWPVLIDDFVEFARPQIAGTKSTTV

CCOC1=Nc2c(c(C)nn2-c2ccccc2)[C@H](c2ccc(F)cc2)[C@@H]1NC(=O)c1cccc(C(F)(F)F)c1 [RG-0009518, N-[(4S,5S)-6-ethoxy-4-(4-fluorophenyl)-3-methyl-1-phenyl-1H,4H,5H-pyrazolo[3,4-b]pyridin-5-yl]-3-(trifluoromethyl)benzamide] and Cc1nn(-c2ccccc2)c2c1[C@H](c1ccc(F)cc1)[C@H](NC(=O)c1cccc(C(F)(F)F)c1)C(=O)N2CCO[Si](C)(C)C(C)(C)C [RG-0014164, N-[(4S,5S)-7-{2-[(tert-butyldimethylsilyl)oxy]ethyl}-4-(4-fluorophenyl)-3-methyl-6-oxo-1-phenyl-1H,4H,5H,6H,7H-pyrazolo[3,4-b]pyridin-5-yl]-3-(trifluoromethyl)benzamide] cannot be ordered by EC50: over 36500 nM for the first, over 36500 nM for the second.

Going from CCN1C(=O)[C@@H](NC(=O)c2cccc(C)c2)[C@@H](c2ccc(F)cc2)c2c(CN)nn(-c3ccccc3)c21 [RG-0009512, N-[(4S,5S)-3-(aminomethyl)-7-ethyl-4-(4-fluorophenyl)-6-oxo-1-phenyl-1H,4H,5H,6H,7H-pyrazolo[3,4-b]pyridin-5-yl]-3-methylbenzamide] to CCN1C(=O)[C@@H](NC(=O)c2cccc(I)c2)[C@@H](c2ccc(F)cc2)c2c(C)nn(-c3ccccc3)c21 [RG-0013060, N-[(4S,5S)-7-ethyl-4-(4-fluorophenyl)-3-methyl-6-oxo-1-phenyl-1H,4H,5H,6H,7H-pyrazolo[3,4-b]pyridin-5-yl]-3-iodobenzamide], the EC50 rises from 171 ± 17.9 nM to 461 ± 29.4 nM (2.7-fold).

CCN1C(=O)[C@@H](NC(=O)c2cccc(C(F)(F)F)c2)[C@@H](c2cc(C)cs2)c2c(C)nn(-c3ccccc3)c21 [RG-0013987, N-[(4S,5S)-7-ethyl-3-methyl-4-(4-methylthiophen-2-yl)-6-oxo-1-phenyl-1H,4H,5H,6H,7H-pyrazolo[3,4-b]pyridin-5-yl]-3-(trifluoromethyl)benzamide] and CCN1C(=O)[C@@H](NC(=O)c2cccc(C(F)(F)F)c2)[C@@H](c2ccc(F)cc2)c2c(C)nn(-c3ccc(C)cc3)c21 [RG-0014036, N-[(4S,5S)-7-ethyl-4-(4-fluorophenyl)-3-methyl-1-(4-methylphenyl)-6-oxo-1H,4H,5H,6H,7H-pyrazolo[3,4-b]pyridin-5-yl]-3-(trifluoromethyl)benzamide] are within error of each other in EC50: 3100 ± 559 nM for the first, 3210 ± 156 nM for the second.

CCCN1C(=O)[C@@H](N(CCC)C(=O)c2cccc(C(F)(F)F)c2)[C@@H](c2ccc(F)cc2)c2c(C)nn(-c3ccccc3)c21 [RG-0009516, N-[(4S,5S)-4-(4-fluorophenyl)-3-methyl-6-oxo-1-phenyl-7-propyl-1H,4H,5H,6H,7H-pyrazolo[3,4-b]pyridin-5-yl]-N-propyl-3-(trifluoromethyl)benzamide] and CCN1C[C@@H](NC(=O)c2cccc(C)c2)[C@@H](c2ccc(F)cc2)c2c(C)nn(-c3ccccc3)c21 [RG-0009507, N-[(4S,5S)-7-ethyl-4-(4-fluorophenyl)-3-methyl-1-phenyl-1H,4H,5H,6H,7H-pyrazolo[3,4-b]pyridin-5-yl]-3-methylbenzamide] cannot be ordered by EC50: over 36500 nM for the first, over 36500 nM for the second.

CCCn1nc(C)c2c1N(CC)C(=O)[C@@H](NC(=O)c1cccc(C)c1)[C@H]2c1ccc(F)cc1 [RG-0008665, N-[(4S,5S)-7-ethyl-4-(4-fluorophenyl)-3-methyl-6-oxo-1-propyl-1H,4H,5H,6H,7H-pyrazolo[3,4-b]pyridin-5-yl]-3-methylbenzamide] and CCN1C(=O)[C@@H](NC(=O)c2cccc(C(F)(F)F)c2)[C@@H](c2ccc(F)cc2)c2c(CN3CCN(CC(F)(F)F)CC3)nn(-c3ccccc3)c21 [RG-0014150, N-[(4S,5S)-7-ethyl-4-(4-fluorophenyl)-6-oxo-1-phenyl-3-{[4-(2,2,2-trifluoroethyl)piperazin-1-yl]methyl}-1H,4H,5H,6H,7H-pyrazolo[3,4-b]pyridin-5-yl]-3-(trifluoromethyl)benzamide] are within 1.5-fold of each other in EC50: 244 ± 20.8 nM for the first, 173 ± 21.9 nM for the second.
